Active and inactive are the calls of the source. The rule behind the calls is not given here.
Key:
CAL-27 [1] = assay: Induction of apoptosis in human CAL-27 cells assessed as early apoptotic cells at 100 nM incubated for 72 hrs by Annexin V-FITC/propidium iodide staining based flow cytometry analysis (reference value: 9.16%); type: functional
CAL-27 [2] = assay: Induction of apoptosis in human CAL-27 cells assessed as late apoptotic cells at 10 nM incubated for 72 hrs by Annexin V-FITC/propidium iodide staining based flow cytometry analysis (reference value: 2.57%); type: functional
CAL-27 [3] = assay: Induction of apoptosis in human CAL-27 cells assessed as viable cells at 1000 nM incubated for 72 hrs by Annexin V-FITC/propidium iodide staining based flow cytometry analysis (reference value: 88.23%); type: functional; details: read-out: Activity
CAL-27 [4] = assay: Induction of apoptosis in human CAL-27 cells assessed as early apoptotic cells at 10 nM incubated for 72 hrs by Annexin V-FITC/propidium iodide staining based flow cytometry analysis (reference value: 9.16%); type: functional
CAL-27 [5] = assay: Induction of apoptosis in human CAL-27 cells assessed as late apoptotic cells at 1 nM incubated for 72 hrs by Annexin V-FITC/propidium iodide staining based flow cytometry analysis (reference value: 2.57%); type: functional
CAL-27 [6] = assay: Induction of apoptosis in human CAL-27 cells assessed as late apoptotic cells at 100 nM incubated for 72 hrs by Annexin V-FITC/propidium iodide staining based flow cytometry analysis (reference value: 2.57%); type: functional
CAL-27 [7] = assay: Induction of apoptosis in human CAL-27 cells assessed as viable cells at 100 nM incubated for 72 hrs by Annexin V-FITC/propidium iodide staining based flow cytometry analysis (reference value: 88.23%); type: functional; details: read-out: Activity
CAL-27 [8] = assay: Induction of apoptosis in human CAL-27 cells assessed as early apoptotic cells at 1000 nM incubated for 72 hrs by Annexin V-FITC/propidium iodide staining based flow cytometry analysis (reference value: 9.16%); type: functional
CAL-27 [9] = assay: Effect on apoptosis in human CAL-27 cells assessed as regulation of gene expression at 1 nM incubated for 48 hrs by GSEA analysis; type: functional, cell-based
CAL-27 [10] = assay: Induction of apoptosis in human CAL-27 cells assessed as viable cells at 100 nM incubated for 72 hrs by Annexin V-FITC/propidium iodide staining based flow cytometry analysis (reference value: 90.41%); type: functional; details: read-out: Activity
CAL-27 [11] = assay: Induction of apoptosis in human CAL-27 cells assessed as viable cells at 10 nM incubated for 72 hrs by Annexin V-FITC/propidium iodide staining based flow cytometry analysis (reference value: 90.41%); type: functional; details: read-out: Activity
CAL-27 [12] = assay: Induction of apoptosis in human CAL-27 cells assessed as apoptotic cells at 100 nM incubated for 72 hrs by Annexin V-FITC/propidium iodide staining based flow cytometry analysis (reference value: 10.29%); type: functional
CAL-27 [13] = assay: Induction of apoptosis in human CAL-27 cells assessed as viable cells at 1000 nM incubated for 72 hrs by Annexin V-FITC/propidium iodide staining based flow cytometry analysis (reference value: 90.41%); type: functional; details: read-out: Activity
CAL-27 [14] = assay: Induction of apoptosis in human CAL-27 cells assessed as early apoptotic cells at 1000 nM incubated for 72 hrs by Annexin V-FITC/propidium iodide staining based flow cytometry analysis (reference value: 7.74%); type: functional
CAL-27 [15] = assay: Induction of apoptosis in human CAL-27 cells assessed as apoptotic cells at 10 nM incubated for 72 hrs by Annexin V-FITC/propidium iodide staining based flow cytometry analysis (reference value: 10.29%); type: functional
CAL-27 [16] = assay: Antitumor activity against human CAL-27 cells xenografted in BALB/c mouse model assessed as reduction in reduction in Ki-67 expression at 0.6 mg/kg, iv treated four times a week for 30 days by immunohistochemical staining analysis; type: functional, organism-based; details: time 30.0 day
CAL-27 [17] = assay: Antiproliferative activity against human CAL-27 cells assessed as inhibition of cell communities at 1 uM treated for 11 days by plate clone formation assay; type: functional, cell-based; details: time 11.0 day
[18] = Toxicity in BALB/c mouse xenografted with human CAL-27 cells assessed as body weight at 0.3 mg/kg, iv treated four times a week for 30 days; type: organism-based; details: in vivo, 720 h, time 30 day
CAL-27 [19] = assay: Induction of cell cycle arrest in human CAL-27 cells assessed as accumulation of cells at S phase at 1 to 1000 nM incubated for 48 hrs by flow cytometry analysis (Rvb=18%); type: functional; details: dose 1-1000 nM
CAL-27 [20] = assay: Effect on cell cycle in human CAL-27 cells assessed as regulation of gene expression at 1 nM incubated for 48 hrs by GSEA analysis; type: functional, cell-based
CAL-27 [21] = assay: Induction of apoptosis in human CAL-27 cells assessed as late apoptotic cells at 100 nM incubated for 72 hrs by Annexin V-FITC/propidium iodide staining based flow cytometry analysis (reference value: 1.82%); type: functional
CAL-27 [22] = assay: Antitumor activity against human CAL-27 cells xenografted in BALB/c mouse model assessed as cancer cell death at 0.6 mg/kg, iv treated four times a week for 30 days by HE staining analysis; type: functional, organism-based; details: time 30.0 day
A549 = assay: Cytotoxicity against human A549 cells incubated for 72 hrs by MTT assay; type: functional, cell-based; details: A549, 72 h
[23] = Half life in ICR mouse at 3 mg/kg, po measured upto 24 hrs by LC-MS/MS analysis; type: ADME, organism-based; details: in vivo
CAL-27 [24] = assay: Induction of apoptosis in human CAL-27 cells assessed as apoptotic cells at 1 nM incubated for 72 hrs by Annexin V-FITC/propidium iodide staining based flow cytometry analysis (reference value: 10.29%); type: functional
CAL-27 [25] = assay: Induction of apoptosis in human CAL-27 cells assessed as viable cells at 1 nM incubated for 72 hrs by Annexin V-FITC/propidium iodide staining based flow cytometry analysis (reference value: 90.41%); type: functional; details: read-out: Activity
CAL-27 [26] = assay: Induction of apoptosis in human CAL-27 cells assessed as early apoptotic cells at 10 nM incubated for 72 hrs by Annexin V-FITC/propidium iodide staining based flow cytometry analysis (reference value: 7.74%); type: functional
CAL-27 [27] = assay: Induction of apoptosis in human CAL-27 cells assessed as late apoptotic cells at 1 nM incubated for 72 hrs by Annexin V-FITC/propidium iodide staining based flow cytometry analysis (reference value: 1.82%); type: functional
CAL-27 [28] = assay: Effect on epithelial cell proliferation in human CAL-27 cells assessed as regulation of cell proliferation related gene expression at 1 nM incubated for 48 hrs by GO analysis; type: functional, cell-based
CAL-27 [29] = assay: Induction of apoptosis in human CAL-27 cells assessed as late apoptotic cells at 1000 nM incubated for 72 hrs by Annexin V-FITC/propidium iodide staining based flow cytometry analysis (reference value: 1.82%); type: functional
CAL-27 [30] = assay: Induction of apoptosis in human CAL-27 cells assessed as early apoptotic cells at 1 nM incubated for 72 hrs by Annexin V-FITC/propidium iodide staining based flow cytometry analysis (reference value: 7.74%); type: functional
CAL-27 [31] = assay: Antitumor activity against human CAL-27 cells xenografted in BALB/c mouse model assessed as reduction in tumor weight at 0.3 mg/kg, iv treated four times a week for 30 days; type: functional; set-up: scale not given: the % may be the effect or the level left; details: time 30 day
CAL-27 [32] = assay: Induction of apoptosis in human CAL-27 cells assessed as early apoptotic cells at 100 nM incubated for 72 hrs by Annexin V-FITC/propidium iodide staining based flow cytometry analysis (reference value: 7.74%); type: functional

## COc1cc2c(O)c3c(c(-c4ccc5c(c4)OCO5)c2cc1OC)C(=O)OC3 [DIPHYLLIN]
CAL-27 [1]
  Activity: 4.87%
CAL-27 [2]
  Activity: 1.34%
CAL-27 [3]
  viability at 1 µM: 82.8%
CAL-27 [4]
  Activity: 3.78%
CAL-27 [5]
  Activity: 5.83%
CAL-27 [6]
  Activity: 2.58%
CAL-27 [7]
  viability at 0.1 µM: 92.5%
CAL-27 [8]
  Activity: 12.06%

## COc1cc2c(O[C@@H]3O[C@@H]4CO[C@@H](c5ccsc5)O[C@H]4[C@H](O)[C@H]3O)c3c(c(-c4ccc5c(c4)OCO5)c2cc1OC)C(=O)OC3
CAL-27 [9]
  Activity: Active
CAL-27 [10]
  viability at 0.1 µM: 28.6%
CAL-27 [11]
  viability at 0.01 µM: 55%
CAL-27 [12]
  Activity: 50.9%
CAL-27 [13]
  viability at 1 µM: 28.1%
CAL-27 [14]
  Activity: 25.35%
CAL-27 [15]
  Activity: 41.84%
CAL-27 [16]
  Activity: Active
CAL-27 [17]
  Activity: Active; Showed More Potent Suppression
[18]
  Activity: Non-toxic
CAL-27 [19]
  Activity: 6%
CAL-27 [20]
  Activity: Active
CAL-27 [21]
  Activity: 41.19%
CAL-27 [22]
  Activity: Active
A549
  IC50: 0.117 µM
[23]
  half-life: 31 min
CAL-27 [24]
  Activity: 15.78%
CAL-27 [25]
  viability at 0.001 µM: 93%
CAL-27 [26]
  Activity: 16.27%
CAL-27 [27]
  Activity: 2.19%
CAL-27 [28]
  Activity: Active
CAL-27 [29]
  Activity: 36.94%
CAL-27 [30]
  Activity: 4.74%
CAL-27 [31]
  Activity: 34%
CAL-27 [32]
  Activity: 27.61%

Source: ChEMBL document CHEMBL6153048, “Synthesis and pharmacological evaluation of natural product diphyllin derivatives against head and neck squamous cell carcinoma” (Eur J Med Chem, 2025)
